Common to all, as to assay: Bliss excess, mean over the matrix (fraction); higher = more synergy
Assay [1] relates to GA-10 (Burkitt's Lymphoma). The method, boiled down: (§1)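 After 24 hours at 37°C and 5% CO2 in 1536-well plates, cells in DMEM/F12 or RPMI plus 10% FBS received two-drug dose matrices for 72 hours. Viability came from CellTiter-Glo 2.0 luminescence and was scaled as inhibition, anchored at 0 by vehicle wells and at 1 by blank wells. Combination Emax is taken as the second-highest inhibition in the matrix, and Bliss excess as the observed combination effect less EA + EB − EA·EB, with EA and EB the single-agent effects.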

The test system of assay [2] is NCI-H2087 (Lung Adenocarcinoma). The essentials:
as §1

The subject of assay [3] is 22RV1 (Prostate Carcinoma). The method, boiled down: as §1
Assay [4] relates to 5637 (Bladder Carcinoma). The method, boiled down:
as §1

Assay [5] deals with SK-HEP-1 (Hepatocellular Carcinoma). The method, boiled down:
as §1

Assay [6] relates to DMS-53 (Small Cell Lung Carcinoma). The essentials: as §1
The subject of assay [7] is A253 (Head and Neck Carcinoma). The essentials:
as §1

Assay [8] relates to JHU-022 (Oral Cavity Carcinoma). The essentials:
as §1

In assay [9] the test system is A101D (Melanoma). The essentials:
as §1

The subject of assay [10] is SW620 (Colorectal Carcinoma). The method, boiled down:
as §1

The test system of assay [11] is CGTH-W-1 (Thyroid Gland Carcinoma). The essentials:
as §1

In assay [12] the test system is NB13 (Neuroblastoma). The essentials: as §1
Assay [13] concerns GCT (Other Solid Carcinomas). The method, boiled down:
as §1

Assay [14] concerns PEO1 (Ovarian Carcinoma). The method, boiled down:
as §1

Assay [15] concerns HT55 (Colorectal Carcinoma). The method, boiled down:
as §1

Assay [16] deals with JVM-2 (B-Cell Non-Hodgkin's Lymphoma). The method, boiled down:
as §1

Assay [17] relates to AU565 (Breast Carcinoma). The method, boiled down:
as §1

Assay [18] relates to CESS (Acute Myeloid Leukemia). The essentials:
as §1

The subject of assay [19] is HCC1395 (Breast Carcinoma). The method, boiled down: as §1
For assay [20], the system named is COLO-792 (Melanoma). The method, boiled down: as §1

As for `CC1(C)CCC(CN2CCN(c3ccc(C(=O)NS(=O)(=O)c4ccc(NCC5CCOCC5)c([N+](=O)[O-])c4)c(Oc4cnc5[nH]ccc5c4)c3)CC2)=C(c2ccc(Cl)cc2)C1` [Venetoclax] + COc1cc(Nc2ncc3c(n2)-c2ccc(Cl)cc2C(c2c(F)cccc2OC)=NC3)ccc1C(=O)O [Alisertib] (first compound max 1 µM, 7x7, partner max 10 µM), the Bliss excess was 0.0181 in [1]; -0.0241 in [2]; 0.003 in [3]; -0.0313 in [4]; -0.0578 in assay [5]; 0.192 in [6]. For the same molecule, the Bliss excess is 0.0091 in [7]; -0.0385 in assay [8]; 0.077 in [9]; -0.0335 in assay [10]; -0.0198 in assay [11]; 0.0028 in assay [12]. The Bliss excess was -0.0365 in [13]; 0.0007 in assay [14]; 0.0009 in assay [15]; 0.0333 in assay [16]; 0.106 in [17]; 0.0268 in [18]. Also, the Bliss excess is -0.0147 in [19] and 0.0487 in [20].
Turning to `CC1(C)CCC(CN2CCN(c3ccc(C(=O)NS(=O)(=O)c4ccc(NCC5CCOCC5)c([N+](=O)[O-])c4)c(Oc4cnc5[nH]ccc5c4)c3)CC2)=C(c2ccc(Cl)cc2)C1` [Venetoclax] + C[C@@H]1COCCN1C2=NC(=NC(=C2)C3(CC3)[S@](=N)(=O)C)C4=C5C=CNC5=NC=C4 [AZD6738] (first compound max 1 µM, 7x7, partner max 10 µM), the Bliss excess is -0.0281 in assay [1]; -0.0511 in assay [2]; -0.0368 in assay [3]; -0.048 in assay [4]; -0.0342 in assay [5]; 0.119 in assay [6]. Moreover, the Bliss excess in [7] is -0.0372; in assay [8] it was -0.007; in assay [9], -0.0313; in assay [10], -0.0365; in assay [11] it was -0.0224; in assay [12], 0.0633. For the same molecule, the Bliss excess in [13] is -0.112; in assay [14], -0.0038; in assay [15] it was -0.0511; in assay [16], -0.0035; in assay [17], 0.0024; in [18], -0.0075. Further, the Bliss excess was -0.0671 in assay [19] and 0.03 in [20].
In the case of `CC1(C)CCC(CN2CCN(c3ccc(C(=O)NS(=O)(=O)c4ccc(NCC5CCOCC5)c([N+](=O)[O-])c4)c(Oc4cnc5[nH]ccc5c4)c3)CC2)=C(c2ccc(Cl)cc2)C1` [Venetoclax] + C[C@@H](Nc1cc(F)cc(F)c1)c1cc(C(=O)N(C)C)cc2c(=O)cc(N3CCOCC3)oc12 [AZD8186] (first compound max 1 µM, 7x7, partner max 3 µM), the Bliss excess in assay [1] was -0.0088; in assay [2], -0.0442; in assay [3], -0.0172; in assay [4] it was -0.0273; in [5], -0.0299; in assay [6], -0.0141. Further, the Bliss excess in assay [7] is -0.0364; in assay [8] it was -0.0563; in [9], 0.0305; in [10], -0.0505; in [11] it was -0.0244; in [12], -0.0171. Further, the Bliss excess in assay [13] is -0.0154; in assay [14], -0.0427; in [15], -0.0193; in assay [16], 0.0354; in assay [17] it was -0.0033; in [18], -0.0244. Also, the Bliss excess stood at 0.0107 in [19] and 0.0036 in [20].
As for `CC1(C)CCC(CN2CCN(c3ccc(C(=O)NS(=O)(=O)c4ccc(NCC5CCOCC5)c([N+](=O)[O-])c4)c(Oc4cnc5[nH]ccc5c4)c3)CC2)=C(c2ccc(Cl)cc2)C1` [Venetoclax] + Cc1cc2ncnn2cc1Nc1ncc2c(n1)n(C1CCOCC1)c(=O)n2C [AZD7648] (first compound max 1 µM, 7x7, partner max 10 µM), the Bliss excess was -0.0603 in assay [1]; -0.0467 in assay [2]; -0.0313 in [3]; -0.0504 in [4]; -0.0387 in [5]; 0.11 in [6]. The Bliss excess in assay [7] is 0.0072; in [8], -0.0392; in assay [9], -0.0394; in assay [10], -0.0452; in assay [11], -0.0771; in [12] it was 0.0559. Further, the Bliss excess in assay [13] is -0.046; in [14], -0.033; in assay [15], -0.0069; in assay [16], -0.025; in [17] it was 0.0266; in assay [18], -0.0288. Besides, the Bliss excess was -0.0491 in [19] and -0.0139 in assay [20].
In the case of `CC1(C)CCC(CN2CCN(c3ccc(C(=O)NS(=O)(=O)c4ccc(NCC5CCOCC5)c([N+](=O)[O-])c4)c(Oc4cnc5[nH]ccc5c4)c3)CC2)=C(c2ccc(Cl)cc2)C1` [Venetoclax] + Cn1cnc2c(F)c(Nc3ccc(Br)cc3Cl)c(C(=O)NOCCO)cc21 [Selumetinib] (first compound max 1 µM, 7x7, partner max 3 µM), the Bliss excess in assay [1] was -0.0622; in assay [2], -0.0207; in assay [3], -0.0091; in assay [4] it was -0.0194; in [5] it was -0.0378; in [6], 0.0543. In addition, the Bliss excess was -0.028 in assay [7]; -0.0181 in assay [8]; -0.0254 in assay [9]; -0.0414 in [10]; -0.0482 in [11]; -0.0837 in [12]. Besides, the Bliss excess is -0.0399 in assay [13]; -0.0452 in assay [14]; -0.0356 in assay [15]; 0.0617 in assay [16]; 0.0147 in [17]; -0.0674 in assay [18]. In addition, the figures for the Bliss excess in assay [19] and in assay [20] were -0.0171 and 0.0083, respectively.
